The test system of assay [1] is BT474 (human breast carcinoma). The experiment in a line: In vitro tumor cell proliferation assay (Cell Titer-Glo luminescent cell viability), BT474. The format is cell-based. The conditions noted are these: BT-474, 72 h, BT474 cells, 72 hours of drug exposure, ATP luminescence readout, read-out: IC50, anti-proliferative activity (inhibition of cell proliferation). From the text:
(§1) In vitro Tumor Cell Proliferation Assay
(§2) The tumor cell proliferation assay used to test the compounds of the present invention involves a readout called Cell Titer-Glow® Luminescent Cell Viability Assay developed by Promega® (Cunningham, B A “A Growing Issue: Cell Proliferation Assays, Modern kits ease quantification of cell growth” The Scientist 2001, 15(13), 26, and Crouch, S P et al., “The use of ATP bioluminescence as a measure of cell proliferation and cytotoxicity” Journal of Immunological Methods 1993, 160, 81-88), that measures inhibition of cell proliferation. Generation of a luminescent signal corresponds to the amount of ATP present, which is directly proportional to the number of metabolically active (proliferating) cells.
(§3) A431cells (human epidermoid carcinoma, ATCC […]) and BT474 (human breast carcinoma, ATCC […]) were plated at a density of 2.5×10^3 cells/well in 96 well black-clear bottom tissue culture plates in RPMI media with 10% Fetal Bovine Serum and incubated at 37° C. Twenty-four hours later, test compounds are added at a final concentration range from as high […] to as low 64 pM depend on the activities of the tested compounds in serial dilutions at a final DMSO concentration of 0.1%. Cells were incubated for 72 hours at 37° C. in complete growth media after addition of the test compound. After 72 hours of drug exposure, the plates were equilibrated to room temperature for approximately 30 min. Then, using a Promega Cell Titer Glo Luminescent® assay kit, lysis buffer containing 100 microliters of the enzyme luciferase and its substrate, luciferin mixture, was added to each well. The plates were mixed for 2 min on orbital shaker to ensure cell lysis and incubated for 10 min at room temperature to stabilize luminescence signal. The samples were read on VICTOR 2 using Luminescence protocol, and analyzed with Analyze5 software to generate IC50 values.
In general terms: Cellular ATP, detected with luciferase, serves as a proxy for viable cell number.

Assay [2] has as its system A431 cells (human epidermoid carcinoma). The experiment in a line: In vitro tumor cell proliferation assay (Cell Titer-Glo luminescent cell viability), A431. The format is cell-based. The following applies: A-431, 72 h, 72 hours of drug exposure, ATP luminescence readout, read-out: IC50, anti-proliferative activity (inhibition of cell proliferation).
Excerpt: as §1, §2, §3

Each structure is given as a SMILES string.

With `OCCNCCn1cc2c(n1)CCc1c-2sc2ncnc(Nc3ccc(F)c(Cl)c3)c12` [Example 19, 2-[(2-{6-[(3-chloro-4-fluorophenyl)amino]-4,5-dihydro-2H-pyrimido[5′,4′:4,5]thieno[2,3-e]indazol-2-yl}ethyl)amino]ethanol], the IC50 in assay [1] and in assay [2] was not above 5 µM in each case.

Turning to `COCCN(CCn1cc2c(n1)CCc1c-2sc2ncnc(Nc3ccc(F)c(Cl)c3)c12)C(C)C` [Example 21, N-(3-chloro-4-fluorophenyl)-2-{2-[isopropyl(2-methoxyethyl)amino]ethyl}-4,5-dihydro-2H-pyrimido[5′,4′:4,5]thieno[2,3-e]indazol-6-amine], the IC50 in assay [1] and in assay [2] was not above 5 µM each time.

Regarding `Fc1ccc(Nc2ncnc3sc4c(c23)CCc2nn(CCN3CCN(c5cnccn5)CC3)cc2-4)cc1Cl` [Example 22, N-(3-chloro-4-fluorophenyl)-2-[2-(4-pyrazin-2-ylpiperazin-1-yl)ethyl]-4,5-dihydro-2H-pyrimido[5′,4′:4,5]thieno[2,3-e]indazol-6-amine], the IC50 in assay [1] and in assay [2] was not above 5 µM in each case.

As for `CCCN(CCOC)CCn1cc2c(n1)CCc1c-2sc2ncnc(Nc3ccc(F)c(Cl)c3)c12` [Example 23, N-(3-chloro-4-fluorophenyl)-2-{2-[(2-methoxyethyl)(propyl)amino]ethyl}-4,5-dihydro-2H-pyrimido[5′,4′:4,5]thieno[2,3-e]indazol-6-amine], the IC50 in assay [1] and in assay [2] was not above 5 µM in each case.

Regarding `CCN(CCOC)CCn1cc2c(n1)CCc1c-2sc2ncnc(Nc3ccc(F)c(Cl)c3)c12` [Example 24, N-(3-chloro-4-fluorophenyl)-2-{2-[ethyl(2-methoxyethyl)amino]ethyl}-4,5-dihydro-2H-pyrimido[5′,4′:4,5]thieno[2,3-e]indazol-6-amine], the IC50 in assay [1] and in assay [2] was not above 5 µM in each case.

As to `COCCN1CCN(CCn2cc3c(n2)CCc2c-3sc3ncnc(Nc4ccc(F)c(Cl)c4)c23)CC1` [Example 25, N-(3-chloro-4-fluorophenyl)-2-{2-[4-(2-methoxyethyl)piperazin-1-yl]ethyl}-4,5-dihydro-2H-pyrimido[5′,4′:4,5]thieno[2,3-e]indazol-6-amine], the IC50 in assay [1] and in assay [2] was not above 5 µM in each case.

On to `OCCN(CCO)CCn1cc2c(n1)CCc1c-2sc2ncnc(Nc3ccc(F)c(Cl)c3)c12` [Example 26, 2,2′-[(2-{6-[(3-chloro-4-fluorophenyl)amino]-4,5-dihydro-2H-pyrimido[5′,4′:4,5]thieno[2,3-e]indazol-2-yl}ethyl)imino]diethanol], for which the IC50 in assay [1] and in assay [2] was not above 5 µM in each case.

As for `CC(C)(C)OC(=O)N1CCN(CCn2cc3c(n2)CCc2c-3sc3ncnc(Nc4ccc(F)c(Cl)c4)c23)CC1` [Example 27, tert-butyl 4-(2-{6-[(3-chloro-4-fluorophenyl)amino]-4,5-dihydro-2H-pyrimido[5′,4′:4,5]thieno[2,3-e]indazol-2-yl}ethyl)piperazine-1-carboxylate], the IC50 in assay [1] and in assay [2] was not above 5 µM each time.

With `COC[C@H]1CCCN1CCn1cc2c(n1)CCc1c-2sc2ncnc(Nc3ccc(F)c(Cl)c3)c12` [Example 28, N-(3-chloro-4-fluorophenyl)-2-{2-[(2R)-2-(methoxymethyl)pyrrolidin-1-yl]ethyl}-4,5-dihydro-2H-pyrimido[5′,4′:4,5]thieno[2,3-e]indazol-6-amine], the IC50 in assay [1] and in assay [2] was not above 5 µM in each case.

For `OC[C@H]1CCCN1CCn1cc2c(n1)CCc1c-2sc2ncnc(Nc3ccc(F)c(Cl)c3)c12` [Example 29, [(2R)-1-(2-{6-[(3-chloro-4-fluorophenyl)amino]-4,5-dihydro-2H-pyrimido[5′,4′:4,5]thieno[2,3-e]indazol-2-yl}ethyl)pyrrolidin-2-yl]methanol], the IC50 in assay [1] and in assay [2] was not above 5 µM each time.

As to `O[C@H]1CCN(CCn2cc3c(n2)CCc2c-3sc3ncnc(Nc4ccc(F)c(Cl)c4)c23)C1` [Example 30, (3S)-1-(2-{6-[(3-chloro-4-fluorophenyl)amino]-4,5-dihydro-2H-pyrimido[5′,4′:4,5]thieno[2,3-e]indazol-2-yl}ethyl)pyrrolidin-3-ol], the IC50 in assay [1] and in assay [2] was not above 5 µM in each case.

With `COC[C@@H]1CCCN1CCn1cc2c(n1)CCc1c-2sc2ncnc(Nc3ccc(F)c(Cl)c3)c12` [Example 31, N-(3-chloro-4-fluorophenyl)-2-{2-[(2S)-2-(methoxymethyl)pyrrolidin-1-yl]ethyl}-4,5-dihydro-2H-pyrimido[5′,4′:4,5]thieno[2,3-e]indazol-6-amine], the IC50 in assay [1] and in assay [2] was not above 5 µM each time.

Take `OC[C@@H]1CCCN1CCn1cc2c(n1)CCc1c-2sc2ncnc(Nc3ccc(F)c(Cl)c3)c12` [Example 32, [(2S)-1-(2-{6-[(3-chloro-4-fluorophenyl)amino]-4,5-dihydro-2H-pyrimido[5′,4′:4,5]thieno[2,3-e]indazol-2-yl}ethyl)pyrrolidin-2-yl]methanol]: the IC50 in assay [1] and in assay [2] was not above 5 µM throughout.

As for `O[C@@H]1CCN(CCn2cc3c(n2)CCc2c-3sc3ncnc(Nc4ccc(F)c(Cl)c4)c23)C1` [Example 33, (3R)-1-(2-{6-[(3-chloro-4-fluorophenyl)amino]-4,5-dihydro-2H-pyrimido[5′,4′:4,5]thieno[2,3-e]indazol-2-yl}ethyl)-pyrrolidin-3-ol], the IC50 in assay [1] and in assay [2] was not above 5 µM in each case.

Turning to `COC(=O)[C@@H]1CCCN1CCn1cc2c(n1)CCc1c-2sc2ncnc(Nc3ccc(F)c(Cl)c3)c12` [Example 34, methyl 1-(2-{6-[(3-chloro-4-fluorophenyl)amino]-4,5-dihydro-2H-pyrimido[5′,4′:4,5]thieno[2,3-e]indazol-2-yl}ethyl)-L-prolinate], the IC50 in assay [1] and in assay [2] was not above 5 µM in each case.

For `Fc1ccc(Nc2ncnc3sc4c(c23)CCc2nn(CCN3CCSCC3)cc2-4)cc1Cl` [Example 35, N-(3-chloro-4-fluorophenyl)-2-(2-thiomorpholin-4-ylethyl)-4,5-dihydro-2H-pyrimido[5′,4′:4,5]thieno[2,3-e]indazol-6-amine], the IC50 in assay [1] and in assay [2] was not above 5 µM throughout.

As for `CCN1CCN(CCn2cc3c(n2)CCc2c-3sc3ncnc(Nc4ccc(F)c(Cl)c4)c23)CC1` [Example 36, N-(3-chloro-4-fluorophenyl)-2-[2-(4-ethylpiperazin-1-yl)ethyl]-4,5-dihydro-2H-pyrimido[5′,4′:4,5]thieno[2,3-e]indazol-6-amine], the IC50 in assay [1] and in assay [2] was not above 5 µM in each case.

As to `Cc1nccn1CCn1cc2c(n1)CCc1c-2sc2ncnc(Nc3ccc(F)c(Cl)c3)c12` [Example 37, N-(3-chloro-4-fluorophenyl)-2-[2-(2-methyl-1H-imidazol-1-yl)ethyl]-4,5-dihydro-2H-pyrimido[5′,4′:4,5]thieno[2,3-e]indazol-6-amine], the IC50 in assay [1] and in assay [2] was not above 5 µM in each case.

As to `CCc1nccn1CCn1cc2c(n1)CCc1c-2sc2ncnc(Nc3ccc(F)c(Cl)c3)c12` [Example 38, N-(3-chloro-4-fluorophenyl)-2-[2-(2-ethyl-1H-imidazol-1-yl)ethyl]-4,5-dihydro-2H-pyrimido[5′,4′:4,5]thieno[2,3-e]indazol-6-amine], the IC50 in assay [1] and in assay [2] was not above 5 µM each time.

In the case of `CN1CCN(CCn2cc3c(n2)CCc2c-3sc3ncnc(Nc4ccc5c(cnn5Cc5ccccc5)c4)c23)CC1` [Example 39, N-(1-benzyl-1H-indazol-5-yl)-2-[2 (4-methylpiperazin-1-yl)ethyl]-4,5-dihydro-2H-pyrimido[5′,4′:4,5]thieno[2,3-e]indazol-6-amine], the IC50 in assay [1] is not above 1 µM; in assay [2], not above 50 µM.

With `Fc1ccc(Nc2ncnc3sc4c(c23)CCc2n[nH]cc2-4)cc1Cl` [Example 40, N-(3-chloro-4-fluorophenyl)-4,5-dihydro-2H-pyrimido[5′,4′:4,5]thieno[2,3-e]indazol-6-amine], the IC50 in assay [1] and in assay [2] was not above 5 µM each time.

On to `CCCc1nccn1CCn1cc2c(n1)CCc1c-2sc2ncnc(Nc3ccc(F)c(Cl)c3)c12` [Example 41, N-(3-chloro-4-fluorophenyl)-2-[2-(2-propyl-1H-imidazol-1-yl)ethyl]-4,5-dihydro-2H-pyrimido[5′,4′:4,5]thieno[2,3-e]indazol-6-amine], for which the IC50 in assay [1] and in assay [2] was not above 5 µM in each case.

On to `CC(C)c1nccn1CCn1cc2c(n1)CCc1c-2sc2ncnc(Nc3ccc(F)c(Cl)c3)c12` [Example 42, N-(3-chloro-4-fluorophenyl)-2-[2-(2-isopropyl-1H-imidazol-1-yl)ethyl]-4,5-dihydro-2H-pyrimido[5′,4′:4,5]thieno[2,3-e]indazol-6-amine], for which the IC50 in assay [1] and in assay [2] was not above 5 µM throughout.
